Active and inactive are the calls of the source. No cut-off for these calls is given here.
Columns and labels:
BJAB [1] = assay: Antiproliferative activity against human BJAB cells after 24 hrs by CASY cell counting method; format: functional, cell-based
BJAB [2] = assay: Induction of apoptosis in human BJAB cells assessed as DNA fragmentation after 72 hrs by flow cytometry; format: functional, cell-based
BJAB [3] = assay: Antiproliferative activity against human BJAB cells at AC50 after 24 hrs by CASY cell counting method; format: functional
BJAB [4] = assay: Cytotoxicity against human BJAB cells assessed as necrosis at AC50 after 72 hrs by LDH release assay; format: cell-based
BJAB [5] = assay: Antiproliferative activity against human BJAB cells assessed as cell count at 0.01 uM after 24 hrs by CASY cell counting method (reference value: 2.02 10^5/ml); format: functional
BJAB [6] = assay: Antiproliferative activity against human BJAB cells assessed as cell count at 0.001 uM after 24 hrs by CASY cell counting method (reference value: 2.02 10^5/ml); format: functional
BJAB [7] = assay: Cytotoxicity against human BJAB cells assessed as necrosis at 5 uM after 1 hr by LDH release assay; format: cell-based
[8] = Inhibition of sheep tubulin polymerization by fluorescence based assay; set-up: species or system Ovis aries
Ovis aries = species on record: Ovis aries; assay: Inhibition of sheep tubulin polymerization at 0.75 to 7.5 uM by fluorescence based assay
BJAB [9] = assay: Antiproliferative activity against human BJAB cells assessed as cell count at 0.005 uM after 24 hrs by CASY cell counting method (reference value: 2.02 10^5/ml); format: functional
BJAB [10] = assay: Antiproliferative activity against human BJAB cells assessed as cell count at 0.1 uM after 24 hrs by CASY cell counting method (reference value: 2.02 10^5/ml); format: functional
BJAB [11] = assay: Antiproliferative activity against human BJAB cells assessed as cell count at 0.5 uM after 24 hrs by CASY cell counting method (reference value: 2.02 10^5/ml); format: functional
BJAB [12] = assay: Antiproliferative activity against human BJAB cells assessed as cell count at 1 uM after 24 hrs by CASY cell counting method (reference value: 2.02 10^5/ml); format: functional
BJAB [13] = assay: Antiproliferative activity against human BJAB cells assessed as cell count at 5 uM after 24 hrs by CASY cell counting method (reference value: 2.02 10^5/ml); format: functional
BJAB [14] = assay: Antiproliferative activity against human BJAB cells assessed as cell count at 10 uM after 24 hrs by CASY cell counting method (reference value: 2.02 10^5/ml); format: functional
BJAB [15] = assay: Antiproliferative activity against human BJAB cells assessed as cell count at 30 uM after 24 hrs by CASY cell counting method (reference value: 2.02 10^5/ml); format: functional
BJAB [16] = assay: Antiproliferative activity against human BJAB cells assessed as cell count at 50 uM after 24 hrs by CASY cell counting method (reference value: 2.02 10^5/ml); format: functional
BJAB [17] = assay: Antiproliferative activity against human BJAB cells assessed as cell count at 100 uM after 24 hrs by CASY cell counting method (reference value: 2.02 10^5/ml); format: functional
BJAB [18] = assay: Antiproliferative activity against human BJAB cells assessed as cell count at 0.05 uM after 24 hrs by CASY cell counting method (reference value: 2.02 10^5/ml); format: functional

SMILES | Activity (BJAB [1]) | IC50 (BJAB [1]) [nM] | AC50 (BJAB [2]) [nM] | Activity (BJAB [2]) | inhibition (INH) (BJAB [3]) [%] | Activity (BJAB [4]) [%] | IC50 [8] [nM] | further results
COc1cc2c(c(OC)c1OC)-c1cc3c(ccn3C)cc1C(=O)CC2 | Dose-dependent effect | 10 | 50 | Dose-dependent effect | 98 | 4 | – | –
COc1cc2c(c(OC)c1OC)-c1cc3c(ccn3C)cc1C(O)CC2 (racemic) | Dose-dependent effect | 1 | 1 | Dose-dependent effect | 52 | 7 | – | –
COc1cc2c(c(OC)c1OC)-c1cc3c(ccn3C)cc1C(NC(C)=O)CC2 (racemic) | Dose-dependent effect | > 100000 | > 100000 | Dose-dependent effect | – | – | – | –
COc1cc2c(c(OC)c1OC)-c1cc3c(ccn3C)cc1C(N)CC2 (racemic) | Dose-dependent effect | 500 | 5000 | Dose-dependent effect | 90 | 29 | – | –
COc1cc2c(c(OC)c1OC)-c1cc3c(ccn3C)cc1C(OC(C)=O)CC2 (racemic) | Dose-dependent effect | 10 | 50 | Dose-dependent effect | 89 | 0 | 125 | Activity (BJAB [5]): 1.9 ×10⁵ /ml; Activity (BJAB [6]): 2 ×10⁵ /ml; Activity (BJAB [7]): Non-toxic; inhibition (Ovis aries): Active; Activity (BJAB [9]): 1.87 ×10⁵ /ml; Activity (BJAB [10]): 1.17 ×10⁵ /ml; Activity (BJAB [11]): 1.21 ×10⁵ /ml; Activity (BJAB [12]): 1.09 ×10⁵ /ml; Activity (BJAB [13]): 1.1 ×10⁵ /ml; Activity (BJAB [14]): 1.13 ×10⁵ /ml; Activity (BJAB [15]): 1.12 ×10⁵ /ml; Activity (BJAB [16]): 1.02 ×10⁵ /ml; Activity (BJAB [17]): 0.97 ×10⁵ /ml; Activity (BJAB [18]): 1.11 ×10⁵ /ml
COc1cc2c(c(OC)c1OC)-c1cc3c(ccn3C)cc1C(N=[N+]=[N-])CC2 (racemic) | Dose-dependent effect | 50000 | > 100000 | Dose-dependent effect | 30 | 1 | – | –
COc1cc2c(c(OC)c1OC)-c1cc3ccn(C)c3cc1C(O)CC2 (racemic) | – | – | – | – | – | – | 264 | –
COc1cc2c(c(OC)c1OC)-c1ccc3c(ccn3C)c1C(O)CC2 (racemic) | – | – | – | – | – | – | 228 | –
COc1cc2c(c(OC)c1OC)-c1ccc(OC)c(=O)cc1[C@@H](NC(C)=O)CC2 [COLCHICINE] | Dose-dependent effect | 20 | 30 | Dose-dependent effect | – | – | 375 | –
COc1ccc(/C=C\c2cc(OC)c(OC)c(OC)c2)cc1O [COMBRETASTATIN A4] | – | – | – | – | – | – | 90 | –
